Data on 15 compounds can be found in publication PMC11858207, “Discovery of Isobavachin, a Natural Flavonoid, as an Apolipoprotein E4 (ApoE4) Structure Corrector for Alzheimer’s Disease” (Molecules, 2025).

Where “and” joins values, the source holds several entries; their conditions need not be identical. Identical values can stand only once.

For data set [1], the target named is T1, human recombinant ApoE3 (Homo sapiens, UniProt P02649).
T1 construct: purchased PeproTech
The data set is described as follows: Surface plasmon resonance (SPR) binding, ApoE3. Conditions: Biacore T200. The source says:
(§1) The top virtual hit Isobavachin was further subjected to surface plasmon resonance (SPR) analysis using Biacore T200 (Cytiva, Marlborough, MA, USA) to determine its binding constants with both the ApoE3 and ApoE4 proteins. Together with the human recombinant ApoE3 and ApoE4 proteins, a negative control protein 2′-deoxynucleoside 5′-phosphate N-hydrolase (His-Sumo-DNPH1) was also included in the SPR analysis. The His-Sumo-DNPH1 is structurally unrelated to ApoE proteins, while having a similar size as ApoE proteins (~30 KDa).
(§2) The biophysical binding analysis of ligands with ApoE3 and ApoE4 proteins was carried out using the SPR technique. Human recombinant ApoE3 or ApoE4 proteins were purchased from PeproTech (Cranbury, NJ, USA) and reconstituted according to the manufacturer’s instructions. The negative control protein was His-Sumo-DNPH1 (2′-deoxynucleoside 5′-phosphate N-hydrolase 1), produced in-house in E. coli by The Wistar Institute, Philadelphia. The proteins were covalently attached to a carboxymethyl dextran sensor chip (CMD700M, from Xantec bioanalytics, Düsseldorf, Germany) using standard amine coupling in HEPES buffered saline. The chip is first conditioned for 180 s at 10 µL/min with 1 M NaCl, 0.1 mM Na Borate, pH 9.0, and then activated with 250 mM EDC/100 mM NHS for 600 s at 10 µL/min. The ApoE3/4 and DNPH1 proteins diluted in 10 mM sodium acetate (pH 5.5 and 4.0, respectively) were injected and immobilized on respective flow cells. After immobilization, the remaining activated sites were blocked with 1 M ethanolamine at 10 µL/min for 180 s. Test compounds (purchased from Cayman Chemical (Ann Arbor, MI, USA) and MedChemExpress (Monmouth Junction, NJ, USA)) were first diluted in pure DMSO, which were then further diluted in the running buffer without DMSO (10 mM HEPES, pH 7.4, 150 mM NaCl, 0.005% Tween20) to match the DMSO concentrations of the sample and the running buffer. The association and dissociation times were 60s and 120s, respectively, and the flow rate was 30 µL/min. After each compound injection, the needle was washed in 50% DMSO to reduce compound carry-over. Solvent correction cycles were also included to correct for bulk refractive index changes associated with DMSO.

Data set [2] deals with T2, His-Sumo-DNPH1 (2′-deoxynucleoside 5′-phosphate N-hydrolase 1) (Homo sapiens, UniProt O43598).
T2 construct: made in house; host or cells: E. coli
T2 sequence (O43598 1-174): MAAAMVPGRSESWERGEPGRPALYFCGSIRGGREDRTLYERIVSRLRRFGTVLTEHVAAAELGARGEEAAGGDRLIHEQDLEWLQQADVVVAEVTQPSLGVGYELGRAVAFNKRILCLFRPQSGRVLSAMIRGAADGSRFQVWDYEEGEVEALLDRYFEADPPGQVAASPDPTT
The data set is described as follows: Surface plasmon resonance (SPR) binding, negative control protein.
From the text: as §1, §2

Data set [3] concerns the target T3, human recombinant ApoE4 (Homo sapiens, UniProt P02649, C130R).
T3 construct: purchased PeproTech
The data set is described as follows: Surface plasmon resonance (SPR) binding, ApoE4. Conditions: Biacore T200.
From the text: as §1, §2

Details of data set [4]: method as in PMID 29425649. Conditions: cited from earlier work.
The target of data set [5] is ApoE4. Details: method as in PMID 30933499. As to conditions: experimental ApoE4 binding Kd reported by AbbVie team; read-out: NMR Kd; cited from earlier work.

T3 sequence (P02649 19-317 C130R): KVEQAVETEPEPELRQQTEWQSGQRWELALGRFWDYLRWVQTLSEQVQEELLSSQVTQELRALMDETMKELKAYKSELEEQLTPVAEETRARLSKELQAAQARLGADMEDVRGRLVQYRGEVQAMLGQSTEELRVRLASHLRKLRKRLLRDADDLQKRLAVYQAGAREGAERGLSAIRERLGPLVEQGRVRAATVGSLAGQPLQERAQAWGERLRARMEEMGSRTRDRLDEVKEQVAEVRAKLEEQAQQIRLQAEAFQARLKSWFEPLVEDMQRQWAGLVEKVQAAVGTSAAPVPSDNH
T1 sequence (P02649 19-317): as the sequence (P02649 19-317 C130R) above, with R112C counted along it

As for `CC(C)=CCc1cc2c(cc1O)O[C@H](c1ccc(O)cc1)CC2=O` [Bavachin], the Kd in data set [1] was 59 µM; in data set [3] it was 64 µM. Besides, the “DNPH1 Kd” value in data set [2] was “No binding”.
As for `O=c1c(-c2ccc(O)cc2)coc2cc(O)ccc12` [Daidzein], the Kd in data set [1], in data set [2] and in data set [3] was > 100 µM each time.
Take `O=c1c(-c2ccc(O)cc2)coc2cc(O)cc(O)c12` [Genistein]: the Kd in data set [1], in data set [2] and in data set [3] was > 100 µM throughout.
Consider `CC(C)=CCc1cc([C@@H]2CC(=O)c3ccc(O)c(CC=C(C)C)c3O2)ccc1O` [Glabrol], for which the results for the Kd in data set [1], in data set [2] and in data set [3] were > 100 µM, > 100 µM and 77 µM, respectively.
For the compound `Oc1ccc(C2=Cc3ccc(O)cc3OC2)cc1` [Idronoxil], the Kd in data set [1], in data set [2] and in data set [3] was > 100 µM in each case.
With `CC(C)=CCc1c(O)ccc2c1O[C@H](c1ccc(O)cc1)CC2=O` [Isobavachin], the Kd in data set [1] is ~0.62 µM and 0.62 µM; in data set [2], > 100 µM; in data set [3], ~0.54 µM and 0.54 µM. In addition, in data set [4], the “blood–brain barrier (BBB) penetration” value is “readily penetrate”.
In the case of `COc1cc(O)c(CC=C(C)C)c2c1C(=O)CC(c1ccc(O)cc1)O2` (stereo not shown) [Isoxanthohumol], the Kd in data set [1] is 38 µM; in data set [2] it was > 100 µM; in data set [3] it was 40 µM.
For `CC(C)=CCc1c(-c2ccc(O)cc2O)oc2c3c(cc(O)c2c1=O)OC(C)(C)C=C3` [Morusin], in that order: > 100 µM, 69 µM and > 100 µM.
The like results for `CC(C)=CCc1c(-c2ccc(O)cc2O)oc2c(CC=C(C)C)c(O)cc(O)c2c1=O` [Mulberrin] were, in that order, > 100 µM, > 100 µM and > 100 µM.
`N=C(N)C1(c2cccc(Cl)c2)CCC1` [compound 83673143]: the equilibrium dissociation constant (Kd) in data set [5] is 900 ± 108 µM.
As to `CC(C)(O)c1ccc(-c2cc(Cl)cc(C3(C(=N)N)CCC3)c2)cc1` [compound 137796780], the equilibrium dissociation constant (Kd) in data set [5] was 30 ± 4 µM.
In the case of `N=C(N)C1(c2cc(Cl)cc(-c3ccccc3)c2)CCC1` [compound 155530661], the dissociation constant Kd in data set [5] is 230 ± 24 µM.
For the compound `CCNS(=O)(=O)c1ccc(-c2cc(Cl)cc(C3(C(=N)N)CCC3)c2)cc1` [compound 155552638], the equilibrium dissociation constant (Kd) in data set [5] was 20 ± 4 µM.
In the case of `N=C(N)C1(c2cc(Cl)cc(-c3ccc(CO)c(Cl)c3)c2)CCC1` [compound 155557185], the equilibrium dissociation constant (Kd) in data set [5] is 8 ± 3 µM.
For the compound `CC(=O)NCc1ccc(-c2cc(Cl)cc(C3(C(=N)N)CCC3)c2)cc1` [compound 155563897], in data set [5], the dissociation constant Kd is 20 ± 3 µM.
